# According to patent US12060349B2, “Glucosylceramide synthase inhibitors” (Genzyme Corporation, priority 2012, dated 2024):
# Like-named read-outs stand apart in the source and are kept apart here.
# What was measured:
# [1] = tested on: GM3 expression on the cell surface, B16 mouse melanoma cells; assay: cell based phenotypic assay, cell surface GM3 by antibody mediated immunofluorescence, B16 (GM3 B16 IC50); conditions: 50% inhibition of GM3 expression on the cell surface
# Protocol: (§1) The cell based assay was performed in two different cell types, B16 and C32. Cell viability was also assessed in the second, cell-based assay.
# (§2) The “Compound Number” in the table corresponds to the compound disclosed in the Example of the same number. […] The results of the cell based assays (performed in two different cell systems, i.e. B16 mouse melanoma or C32 human melanoma cells) are expressed as “GM3 B16 IC50” or “GM3 C32 IC50” for the B16 assay and the C32 assay, respectively. […] The results of the viability assays are expressed as “Viability, B16 IC50” or “Viability, C32 IC50”, respectively. These values represent the concentration of the compound causing 50% cell death. Values greater than 10 represent a lack of cell death.
# C32 human melanoma cells = assay: cell viability in the C32 cell-based assay (Viability, C32 IC50); conditions: concentration causing 50% cell death, values greater than 10 represent a lack of cell death
# Protocol: as §1, §2
# [2] = target: T1, glucosylceramide synthase (Homo sapiens, UniProt Q16739); assay: microsomal assay measuring conversion of ceramide to glucosylceramide by HPLC (GCS IC50); assay type: biochemical; conditions: concentration causing 50% inhibition of glucosylceramide synthase activity
# T1 construct: Microsomes were isolated from A375 human melanoma cells; endogenous in cells; host or cells: A375 human melanoma cells (microsomal fraction, 100,000 g pellet)
# T1 sequence (Q16739 1-394): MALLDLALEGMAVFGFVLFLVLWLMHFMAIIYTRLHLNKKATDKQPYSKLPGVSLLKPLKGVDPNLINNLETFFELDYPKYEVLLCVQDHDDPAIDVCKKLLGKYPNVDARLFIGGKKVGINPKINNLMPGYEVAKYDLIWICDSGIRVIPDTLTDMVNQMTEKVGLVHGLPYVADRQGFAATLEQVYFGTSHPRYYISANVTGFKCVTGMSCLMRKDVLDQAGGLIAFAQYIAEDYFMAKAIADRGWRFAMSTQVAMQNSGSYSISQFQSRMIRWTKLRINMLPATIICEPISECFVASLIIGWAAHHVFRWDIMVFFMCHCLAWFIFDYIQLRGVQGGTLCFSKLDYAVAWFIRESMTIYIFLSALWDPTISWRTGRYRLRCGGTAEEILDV
# Protocol: Inhibition of glucosylceramide synthase activity for certain compounds of the invention were measured with 1) a microsomal assay that directly measures the conversion of ceramide to glucosylceramide by HPLC and 2) second, cell based, phenotypic assay that monitors cell surface expression of the downstream lipid GM3 by antibody mediated immunofluorescence. The cell based assay was performed in two different cell types, B16 and C32. Cell viability was also assessed in the second, cell-based assay.
# The “Compound Number” in the table corresponds to the compound disclosed in the Example of the same number. The results of the microsomal assay are expressed as “GCS IC50”, which represents the concentration of the compound causing 50% inhibition of glucosylceramide synthase activity. The results of the cell based assays (performed in two different cell systems, i.e. B16 mouse melanoma or C32 human melanoma cells) are expressed as “GM3 B16 IC50” or “GM3 C32 IC50” for the B16 assay and the C32 assay, respectively. These values represent the concentration of the compound causing 50% inhibition of GM3 expression on the cell surface. The results of the viability assays are expressed as “Viability, B16 IC50” or “Viability, C32 IC50”, respectively. These values represent the concentration of the compound causing 50% cell death. Values greater than 10 represent a lack of cell death.
# B16 mouse melanoma cells = assay: cell viability in the B16 cell-based assay (Viability, B16 IC50)
# Protocol: as §1, §2
# [3] = tested on: GM3 expression on the cell surface, C32 human melanoma cells; assay: cell based phenotypic assay, cell surface GM3 by antibody mediated immunofluorescence, C32 (GM3 C32 IC50); conditions: 50% inhibition of GM3 expression on the cell surface
# Protocol: as §1, §2
# [4] = Mus musculus, read-out: GM3 B16 IC50, B16 mouse melanoma cells
# [5] = Homo sapiens, C32, read-out: Viability, C32 IC50, C32 cells
# [6] = Mus musculus, B16, read-out: Viability, B16 IC50
# [7] = Homo sapiens, read-out: GM3 C32 IC50, C32 human melanoma cells
# [8] = Mus musculus, B16 mouse melanoma cells, read-out: GM3 B16 IC50
# [9] = Homo sapiens, C32, C32 cells, read-out: Viability, C32 IC50
# [10] = Mus musculus, B16, B16 cells, concentration causing 50% cell death, values greater than 10 represent a lack of cell death, read-out: Viability, B16 IC50
# [11] = Homo sapiens, C32 human melanoma cells, read-out: GM3 C32 IC50
# [12] = B16 mouse melanoma cells, read-out: GM3 B16 IC50
# [13] = C32 cells, read-out: Viability, C32 IC50
# [14] = B16 cells, concentration causing 50% cell death, values greater than 10 represent a lack of cell death, read-out: Viability, B16 IC50
# [15] = C32 human melanoma cells, read-out: GM3 C32 IC50
Compound,"IC50 [1, 4] [µM]",IC50 (C32 human melanoma cells; [5]) [µM],IC50 [2] [µM],IC50 (B16 mouse melanoma cells; [6]) [µM],"IC50 [3, 7] [µM]","IC50 [1, 8] [µM]",IC50 (C32 human melanoma cells; [9]) [µM],IC50 (B16 mouse melanoma cells; [10]) [µM],"IC50 [3, 11] [µM]","IC50 [1, 12] [µM]",IC50 (C32 human melanoma cells; [13]) [µM],IC50 (B16 mouse melanoma cells; [14]) [µM],"IC50 [3, 15] [µM]"
"CC(C)(C)CCS(=O)(=O)c1ccc(-c2ccc(C(C)(C)NC(=O)OC3CN4CCC3CC4)cc2)cc1 (stereo not drawn) [Example 245, Quinuclidin-3-yl (2-(4′-((3,3-dimethylbutyl)sulfonyl)-[1,1′-biphenyl]-4-yl)propan-2-yl)carbamate]",0.0663,0.316,0.00185,6.74,0.000716,–,–,–,–,–,–,–,–
"COCCCOc1cnc(-c2cccc(C(C)(C)NC(=O)OC3CCN4CCC3CC4)c2)cn1 (stereo not drawn) [Example 316, 1-Azabicyclo[3.2.2]nonan-4-yl (2-(3-(5-(3-methoxypropoxy)pyrazin-2-yl)phenyl)propan-2-yl)carbamate]",–,–,0.028,–,–,0.152,≥ 10,≥ 10,0.00439,–,–,–,–
"O=C(NC1(c2ccc(-c3ccc(COCc4cncnc4)cc3)cc2)CC1)OC1CN2CCC1CC2 (stereo not drawn) [Example 219, Quinuclidin-3-yl (1-(4′-((pyrimidin-5-ylmethoxy)methyl)-[1,1′-biphenyl]-4-yl)cyclopropyl)carbamate]",0.118,≥ 10,0.0466,≥ 10,0.0209,–,–,–,–,–,–,–,–
"CCC1(NC(=O)NC(C)(C)c2ccc(-c3ccc(N4CCOCC4)cc3)cc2)CN2CCC1CC2 (stereo not drawn) [Example 234, 1-(3-Ethylquinuclidin-3-yl)-3-(2-(4′-morpholino-[1,1′-biphenyl]-4-yl)propan-2-yl)urea]",–,–,0.0146,–,–,0.0326,1,1,0.00181,–,–,–,–
1-(5-Fluoro-4-(4-(2-methoxyethoxy)phenyl)pyrimidin-2-yl)-N-(3-methylquinuclidin-3-yl)piperidine-4-carboxamide [Example 57],–,–,0.00241,–,–,–,–,–,–,0.0693,1,≥ 10,0.000169
"COCCOc1ccc(-c2ccnc(N3CCC(F)(C(=O)NC4(C)CCN5CCC4CC5)CC3)n2)cc1 (stereo not drawn) [Example 93, 4-Fluoro-1-(4-(4-(2-methoxyethoxy)phenyl)pyrimidin-2-yl)-N-(4-methyl-1-azabicyclo[3.2.2]nonan-4-yl)piperidine-4-carboxamide]",–,–,0.00396,–,–,0.0439,0.316,3.96,0.000261,–,–,–,–
"O=C(NC1CCN2CCC1CC2)N1CCN(c2cccc(-c3ccccc3)c2)CC1 (stereo not drawn) [Example 14, 4-([1,1′-Biphenyl]-3-yl)-N-(1-azabicyclo[3.2.2]nonan-4-yl)piperazine-1-carboxamide]",–,–,0.705,–,–,3.39,≥ 10,6.79,0.108,–,–,–,–
"CCC1(NC(=O)NC2(c3ccc(-c4ccc(COCCOC)cc4)cc3)CC2)CN2CCC1CC2 (single isomer, unassigned) [Example 209, 1-(3-Ethylquinuclidin-3-yl)-3-(1-(4′-((2-methoxyethoxy)methyl)-[1,1′-biphenyl]-4-yl)cyclopropyl)urea]",–,–,0.0174,–,–,–,–,–,–,0.0392,1.78,≥ 10,0.00105
"CCCC1(NC(=O)NC(C)(C)C#Cc2ccc(CCOC)cc2)CN2CCC1CC2 (stereo not drawn) [Example 326, 1-(4-(4-(2-Methoxyethyl)phenyl)-2-methylbut-3-yn-2-yl)-3-(3-propylquinuclidin-3-yl)urea]",–,–,0.0266,–,–,0.123,3.16,3.16,0.00429,–,–,–,–
"CCC1(NC(=O)NC(C)(C)c2ccc(-c3ccc(S(=O)(=O)CC4(COC)CC4)cc3)cc2)CN2CCC1CC2 (stereo not drawn) [Example 250, 1-(3-Ethylquinuclidin-3-yl)-3-(2-(4′-(((1-(methoxymethyl)cyclopropyl)methyl)sulfonyl)-[1,1′-biphenyl]-4-yl)propan-2-yl)urea]",–,–,0.0201,–,–,0.0845,1,≥ 10,0.00441,–,–,–,–
"CC1(NC(=O)C2CCN(c3cncc(-c4ccc(F)cc4)c3)CC2)CCN2CCC1CC2 (stereo not drawn) [Example 107, 1-(5-(4-Fluorophenyl)pyridin-3-yl)-N-(4-methyl-1-azabicyclo[3.2.2]nonan-4-yl)piperidine-4-carboxamide]",–,–,0.00476,–,–,0.299,0.0785,≥ 10,0.000935,–,–,–,–
"O=C(NC1CN2CCC1CC2)N1CCN(c2cccc(-c3ccccc3)c2)CC1 (stereo not drawn) [Example 13, 4-([1,1′-Biphenyl]-3-yl)-N-(quinuclidin-3-yl)piperazine-1-carboxamide]",–,–,2.47,–,–,6.8,≥ 10,8.59,0.697,–,–,–,–
"COCCOc1ccc(-c2ccc(C(C)(C)NC(=O)OC3CN4CCC3CC4)cc2)cn1 (stereo not drawn) [Example 307, Quinuclidin-3-yl 2-(4-(6-(2-methoxyethoxy)pyridin-3-yl)phenyl)propan-2-ylcarbamate]",4.34,≥ 10,0.735,≥ 10,0.0972,–,–,–,–,–,–,–,–
"CNC(=O)c1ccc(Oc2ccc(C(C)(C)NC(=O)NC3(C)CCN4CCC3CC4)cc2)cc1 (stereo not drawn) [Example 294, N-Methyl-4-(4-(2-(3-(4-methyl-1-aza-bicyclo[3.2.2]nonan-4-yl)ureido)propan-2-yl)phenoxy)benzamide]",–,–,0.0124,–,–,0.843,1,≥ 10,0.00706,–,–,–,–
"COCCCOc1cnc(-c2cccc(C(C)(C)NC(=O)OC3CCN4CCC3CC4)c2)nc1 (stereo not drawn) [Example 324, 1-Azabicyclo[3.2.2]nonan-4-yl (2-(3-(5-(3-methoxypropoxy)pyrimidin-2-yl)phenyl)propan-2-yl)carbamate]",–,–,0.0969,–,–,0.157,1,≥ 10,0.00849,–,–,–,–
"CC(C)(NC(=O)N1CCN2CCC1CC2)c1ccc(-c2ccc(CN3CCOCC3)cc2)cc1 [Example 230, N-(2-(4′-(Morpholinomethyl)-[1,1′-biphenyl]-4-yl)propan-2-yl)-1,4-diazabicyclo[3.2.2]nonane-4-carboxamide]",–,–,2.28,–,–,1.79,≥ 10,≥ 10,0.417,–,–,–,–
"COCCOCc1ccc(-c2nc(N3CCC(F)(C(=O)NC4(C)CCN5CCC4CC5)CC3)ncc2F)cc1 (stereo not drawn) [Example 77, 4-Fluoro-1-(5-fluoro-4-(4-((2-methoxyethoxy)methyl)phenyl)pyrimidin-2-yl)-N-(4-methyl-1-azabicyclo[3.2.2]nonan-4-yl)piperidine-4-carboxamide]",–,–,0.00167,–,–,0.0863,0.316,3.76,0.000316,–,–,–,–
"CC1(NC(=O)C2CN(c3ncc(F)c(-c4ccc(F)cc4)n3)C2)CCN2CCC1CC2 (stereo not drawn) [Example 112, 1-(5-Fluoro-4-(4-fluorophenyl)pyrimidin-2-yl)-N-(4-methyl-1-azabicyclo[3.2.2]nonan-4-yl)azetidine-3-carboxamide]",–,–,0.00737,–,–,0.122,0.316,7.24,0.000238,–,–,–,–
